How the values were obtained:
Format in all cases: in vivo
[1] = test system: ivy-leaved morning glory (Ipomoea hederacea); assay: Test G Pre-Emergence Protocol; details: Ipomoea, pre-emergence, 312 h, evaluated after 13 days
In short: (§1)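 Pots of seeds in standard soil were grown for one day in a glasshouse (24/16 °C day/night, 14 h light, 65% humidity), then sprayed with compound in acetone/water 50:50 with 0.5% Tween 20 at 15.625, 62.5 or 250 g/ha. Damage was scored after 13 days on a 0 (none) to 100 (total) scale.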

[2] = test system: barnyardgrass (Echinochloa crus-galli); assay: Test G Pre-Emergence Protocol; details: Echinochloa crus-galli, pre-emergence, 312 h, evaluated after 13 days
In short: as §1

[3] = test system: redroot pigweed (Amaranthus retroflexus); assay: Test G Pre-Emergence Protocol; details: Amaranthus retroflexus, pre-emergence, 312 h, evaluated after 13 days
In short: as §1

corn (Zea mays) [4] = assay: Test G Pre-Emergence Protocol; details: Zea mays, pre-emergence, 312 h, evaluated after 13 days
In short: as §1

[5] = test system: velvetleaf (Abutilon theophrasti); assay: Test G Pre-Emergence Protocol; details: Abutilon theophrasti, pre-emergence, 312 h, evaluated after 13 days
In short: as §1

[6] = test system: giant foxtail (Setaria faberi); assay: Test G Pre-Emergence Protocol; details: Setaria faberi, pre-emergence, 312 h, evaluated after 13 days
In short: as §1

[7] = test system: ivy-leaved morning glory (Ipomoea hederacea); assay: Test G Post-Emergence Protocol; details: Ipomoea, post-emergence, 312 h
In short: (§2)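 Eight days post-sowing, plants received a spray of test compound (acetone/water 50:50, 0.5% Tween 20) at 15.625, 62.5 or 250 g/ha. Glasshouse regime thereafter: 24/16 °C, 14 h light, 65% humidity. Assessment after 13 days on a 0–100 damage scale.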

[8] = test system: barnyardgrass (Echinochloa crus-galli); assay: Test G Post-Emergence Protocol; details: Echinochloa crus-galli, post-emergence, 312 h
In short: as §2

[9] = test system: redroot pigweed (Amaranthus retroflexus); assay: Test G Post-Emergence Protocol; details: Amaranthus retroflexus, post-emergence, 312 h
In short: as §2

corn (Zea mays) [10] = assay: Test G Post-Emergence Protocol; details: Zea mays, post-emergence, 312 h
In short: as §2

[11] = test system: velvetleaf (Abutilon theophrasti); assay: Test G Post-Emergence Protocol; details: Abutilon theophrasti, post-emergence, 312 h
In short: as §2

[12] = test system: giant foxtail (Setaria faberi); assay: Test G Post-Emergence Protocol; details: Setaria faberi, post-emergence, 312 h
In short: as §2

CSc1ccccc1NC(=O)[C@@H]1C(=O)N(C)C[C@H]1c1ccc(C(F)(F)F)nc1 (racemic) [Compound 1584]
pest or weed control at 15.625 g/ha ([1]; 15.625 g ai/ha, read-out: Morning-glory, Ivy-leaved damage rating (100=total damage to plant; 0=no damage to plant)): 0% | pest or weed control at 62.5 g/ha ([1]; 62.5 g ai/ha, 100=total damage to plant, 0=no damage to plant, read-out: plant damage rating, Morningglory, Ivy-leaved): 0% | pest or weed control at 250 g/ha ([1]; 250 g ai/ha, read-out: Morningglory, Ivy-leaved damage rating (100=total damage to plant; 0=no damage to plant)): 10% | pest or weed control at 15.625 g/ha ([2]; 15.625 g ai/ha, read-out: Barnyard grass damage rating (100=total damage to plant; 0=no damage to plant)): 0% | pest or weed control at 62.5 g/ha ([2]; 62.5 g ai/ha, 100=total damage to plant, 0=no damage to plant, read-out: plant damage rating, Barnyardgrass): 0% | pest or weed control at 250 g/ha ([2]; 250 g ai/ha, read-out: Barnyardgrass damage rating (100=total damage to plant; 0=no damage to plant)): 90% | pest or weed control at 15.625 g/ha ([3]; 15.625 g ai/ha, read-out: Pigweed, Redroot damage rating (100=total damage to plant; 0=no damage to plant)): 0% | pest or weed control at 62.5 g/ha ([3]; 62.5 g ai/ha, 100=total damage to plant, 0=no damage to plant, read-out: plant damage rating, Pigweed, Redroot): 0% | pest or weed control at 250 g/ha ([3]; 250 g ai/ha, read-out: Pigweed, Redroot damage rating (100=total damage to plant; 0=no damage to plant)): 60% | plant injury at 15.625 g/ha (corn (Zea mays) [4]; 15.625 g ai/ha, read-out: Corn damage rating (100=total damage to plant; 0=no damage to plant)): 0% | plant injury at 62.5 g/ha (corn (Zea mays) [4]; 62.5 g ai/ha, 100=total damage to plant, 0=no damage to plant, read-out: plant damage rating, Corn): 0% | plant injury at 250 g/ha (corn (Zea mays) [4]; 250 g ai/ha, read-out: Corn damage rating (100=total damage to plant; 0=no damage to plant)): 70% | pest or weed control at 15.625 g/ha ([5]; 15.625 g ai/ha, read-out: Velvetleaf damage rating (100=total damage to plant; 0=no damage to plant)): 0% | pest or weed control at 62.5 g/ha ([5]; 62.5 g ai/ha, 100=total damage to plant, 0=no damage to plant, read-out: plant damage rating, Velvetleaf): 0% | pest or weed control at 250 g/ha ([5]; 250 g ai/ha, read-out: Velvetleaf damage rating (100=total damage to plant; 0=no damage to plant)): 20% | pest or weed control at 15.625 g/ha ([6]; 15.625 g ai/ha, read-out: Foxtail, Giant damage rating (100=total damage to plant; 0=no damage to plant)): 0% | pest or weed control at 62.5 g/ha ([6]; 62.5 g ai/ha, 100=total damage to plant, 0=no damage to plant, read-out: plant damage rating, Foxtail, Giant): 50% | pest or weed control at 250 g/ha ([6]; 250 g ai/ha, read-out: Foxtail, Giant damage rating (100=total damage to plant; 0=no damage to plant)): 90% | pest or weed control at 15.625 g/ha ([7]; 15.625 g ai/ha, evaluated after 13 days (100=total damage to plant; 0=no damage to plant), read-out: Morningglory, Ivy-leaved damage rating): 0% | pest or weed control at 62.5 g/ha ([7]; 62.5 g ai/ha, evaluated after 13 days, read-out: Morningglory, Ivy-leaved damage rating (100=total damage to plant; 0=no damage to plant)): 20% | pest or weed control at 250 g/ha ([7]; 250 g ai/ha, evaluated after 13 days, read-out: damage to plant, Morningglory, Ivy-leaved (100=total damage to plant; 0=no damage to plant)): 10% | pest or weed control at 15.625 g/ha ([8]; 15.625 g ai/ha, evaluated after 13 days (100=total damage to plant; 0=no damage to plant), read-out: Barnyardgrass damage rating): 0% | pest or weed control at 62.5 g/ha ([8]; 62.5 g ai/ha, evaluated after 13 days, read-out: Barnyardgrass damage rating (100=total damage to plant; 0=no damage to plant)): 0% | pest or weed control at 250 g/ha ([8]; 250 g ai/ha, evaluated after 13 days, read-out: damage to plant, Barnyardgrass (100=total damage to plant; 0=no damage to plant)): 70% | pest or weed control at 15.625 g/ha ([9]; 15.625 g ai/ha, evaluated after 13 days (100=total damage to plant; 0=no damage to plant), read-out: Pigweed, Redroot damage rating): 0% | pest or weed control at 62.5 g/ha ([9]; 62.5 g ai/ha, evaluated after 13 days, read-out: Pigweed, Redroot damage rating (100=total damage to plant; 0=no damage to plant)): 0% | pest or weed control at 250 g/ha ([9]; 250 g ai/ha, evaluated after 13 days, read-out: damage to plant, Pigweed, Redroot (100=total damage to plant; 0=no damage to plant)): 40% | plant injury at 15.625 g/ha (corn (Zea mays) [10]; 15.625 g ai/ha, evaluated after 13 days (100=total damage to plant; 0=no damage to plant), read-out: Corn damage rating): 0% | plant injury at 62.5 g/ha (corn (Zea mays) [10]; 62.5 g ai/ha, evaluated after 13 days, read-out: Corn damage rating (100=total damage to plant; 0=no damage to plant)): 10% | plant injury at 250 g/ha (corn (Zea mays) [10]; 250 g ai/ha, evaluated after 13 days, read-out: damage to plant, Corn (100=total damage to plant; 0=no damage to plant)): 0% | pest or weed control at 15.625 g/ha ([11]; 15.625 g ai/ha, evaluated after 13 days (100=total damage to plant; 0=no damage to plant), read-out: Velvetleaf damage rating): 0% | pest or weed control at 62.5 g/ha ([11]; 62.5 g ai/ha, evaluated after 13 days, read-out: Velvetleaf damage rating (100=total damage to plant; 0=no damage to plant)): 0% | pest or weed control at 250 g/ha ([11]; 250 g ai/ha, evaluated after 13 days, read-out: damage to plant, Velvetleaf (100=total damage to plant; 0=no damage to plant)): 20% | pest or weed control at 15.625 g/ha ([12]; 15.625 g ai/ha, evaluated after 13 days (100=total damage to plant; 0=no damage to plant), read-out: Foxtail, Giant damage rating): 0% | pest or weed control at 62.5 g/ha ([12]; 62.5 g ai/ha, evaluated after 13 days, read-out: Foxtail, Giant damage rating (100=total damage to plant; 0=no damage to plant)): 40% | pest or weed control at 250 g/ha ([12]; 250 g ai/ha, evaluated after 13 days, read-out: damage to plant, Foxtail, Giant (100=total damage to plant; 0=no damage to plant)): 80%

From patent publication US12077503B2, “Substituted cyclic amides and their use as herbicides” (FMC CORPORATION, priority 2015, dated 2024)
